Our source for the IC50 values is patent US8742138B2, “Compounds as hypoxia mimetics, and compositions and uses thereof” (Betta Pharmaceuticals Co., Ltd., priority 2009, dated 2014).

The structures appear in SMILES notation.

Sequence of HIF-PHD2 (Q9GZT9 whole entry): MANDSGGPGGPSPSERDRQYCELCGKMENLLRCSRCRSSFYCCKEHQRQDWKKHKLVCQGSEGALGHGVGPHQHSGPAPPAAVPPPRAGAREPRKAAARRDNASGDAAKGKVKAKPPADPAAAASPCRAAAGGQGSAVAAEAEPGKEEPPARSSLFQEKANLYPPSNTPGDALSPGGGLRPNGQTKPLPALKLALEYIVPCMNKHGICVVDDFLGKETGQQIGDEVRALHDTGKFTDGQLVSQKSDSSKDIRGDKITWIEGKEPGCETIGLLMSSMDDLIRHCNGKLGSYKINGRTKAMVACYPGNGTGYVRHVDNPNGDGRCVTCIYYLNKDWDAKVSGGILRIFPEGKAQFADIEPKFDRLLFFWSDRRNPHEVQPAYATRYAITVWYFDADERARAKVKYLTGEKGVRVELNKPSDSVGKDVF

In the assay the target is HIF-PHD2 (Homo sapiens (Human), UniProt Q9GZT9). Put plainly: Assay of HIF-PHD2 Enzyme Activity (TR-FRET). Format: biochemical. The conditions noted are these: 600 nM full length PHD2, 0.2 μM 2-oxoglutarate, 0.5 μM HIF-1α peptide. Here is the method:
HIF-PHD2 activity was measured using homogeneous TR-FRET technology (see also, US2008/004817; Dao J H et al., Anal Biochem. 2009, 384:213-23). To each well of a ½Area 96-well plate was added 2 μL of test compound in DMSO and 40 μL of assay buffer (50 mM Tris PH7.4/0.01% Tween-20/0.1 mg/ml BSA/1 mM Sodium ascorbate/20 μg/ml Catalase/10 μM FeSO4) containing 600 nM full length PHD2. After a 30 min preincubation at room temperature, the enzymatic reactions were initiated by the addition of 8 μL of substrates (final concentrations of 0.2 μM 2-oxoglutarate and 0.5 μM HIF-1α peptide biotinyl-[…]). After 2 hr at room temperature, the reactions were terminated and signals were developed by the addition of a 50 μL quench/detection mix to a final concentration of 1 mM ortho-phenanthroline, 0.1 mM EDTA, 0.5 nM anti-(His)6LANCE reagent, 100 nM AF647-labeled Streptavidin, and 30 nM (His)6-VHL-elonginB-elonginC complex. The ratio of time resolved fluorescence signals at 665 and 620 nm was determined, and percent inhibition was calculated relative to an uninhibited control sample run in parallel.
On the technique in general: Time-resolved FRET reads energy transfer from a long-lived donor to a nearby acceptor.
The term IC50 denotes the concentration at which inhibition is half-maximal. Low readings indicate inhibition by little substance, high ones a need for much substance. `O=C(O)CNC(=O)c1c(O)c2ccc(-c3ccccc3)cc2oc1=O` [Example 1, N-[(4-hydroxy-2-oxo-7-phenyl-2H-3-chromenyl)carbonyl]glycine]: half-maximal inhibition (IC50) was put at 250 nM.

`O=C(O)CNC(=O)c1c(O)c2ccc(-c3ccccc3Cl)cc2oc1=O` [Example 2, N-[(4-hydroxy-2-oxo-7-(2-chloro-phenyl)-2H-3-chromenyl)carbonyl]glycine] displayed an IC50 of 150 nM.

`O=C(O)CNC(=O)c1c(O)c2ccc(-c3cccc(Cl)c3)cc2oc1=O` [Example 3, N-[(4-hydroxy-2-oxo-7-(3-chloro-phenyl)-2H-3-chromenyl)carbonyl]glycine] registered an IC50 of 150 nM.

Regarding `O=C(O)CNC(=O)c1c(O)c2ccc(-c3ccc(Cl)cc3)cc2oc1=O` [Example 4, N-[(4-hydroxy-2-oxo-7-(4-chloro-phenyl)-2H-3-chromenyl)carbonyl]glycine], the IC50 is 150 nM.

Compound `O=C(O)CNC(=O)c1c(O)c2ccc(-c3cccc(C(F)(F)F)c3)cc2oc1=O` [Example 5, N-[(4-hydroxy-2-oxo-7-(3-trifluoromethyl-phenyl)-2H-3-chromenyl)carbonyl]glycine] yielded an IC50 of 150 nM.

Compound `O=C(O)CNC(=O)c1c(O)c2ccc(-c3ccc(C(F)(F)F)cc3)cc2oc1=O` [Example 6, N-[(4-hydroxy-2-oxo-7-(4-trifluoromethyl-phenyl)-2H-3-chromenyl)carbonyl]glycine] showed an IC50 of 150 nM.

`O=C(O)CNC(=O)c1c(O)c2ccc(-c3cccc(OC(F)(F)F)c3)cc2oc1=O` [Example 7, N-[(4-hydroxy-2-oxo-7-(3-trifluoromethoxy-phenyl)-2H-3-chromenyl)carbonyl]glycine]: the IC50 was found to be 150 nM.

Regarding `O=C(O)CNC(=O)c1c(O)c2ccc(-c3ccc(OC(F)(F)F)cc3)cc2oc1=O` [Example 8, N-[(4-hydroxy-2-oxo-7-(4-trifluoromethoxy-phenyl)-2H-3-chromenyl)carbonyl]glycine], the IC50 came to 150 nM.

`O=C(O)CNC(=O)c1c(O)c2ccc(-c3ccc(Cl)c(Cl)c3)cc2oc1=O` [Example 9, N-[(4-hydroxy-2-oxo-7-(3,4-dichloro-phenyl)-2H-3-chromenyl)carbonyl]glycine] registered an IC50 of 150 nM.

Compound `O=C(O)CNC(=O)c1c(O)c2ccc(-c3ccc(F)c(F)c3)cc2oc1=O` [Example 10, N-[(4-hydroxy-2-oxo-7-(3,4-difluoro-phenyl)-2H-3-chromenyl)carbonyl]glycine] gave an IC50 of 150 nM.

Turning to `O=C(O)CNC(=O)c1c(O)c2ccc(-c3cc(F)c(F)c(F)c3)cc2oc1=O` [Example 11, N-[(4-hydroxy-2-oxo-7-(3,4,5-trifluoro-phenyl)-2H-3-chromenyl)carbonyl]glycine], the IC50 is 150 nM.

Compound `COc1cccc(-c2ccc3c(O)c(C(=O)NCC(=O)O)c(=O)oc3c2)c1` [Example 12, N-[(4-hydroxy-2-oxo-7-(3-methoxy-phenyl)-2H-3-chromenyl)carbonyl]glycine] yielded an IC50 of 150 nM.

The compound `COc1ccc(-c2ccc3c(O)c(C(=O)NCC(=O)O)c(=O)oc3c2)cc1` [Example 13, N-[(4-hydroxy-2-oxo-7-(4-methoxy-phenyl)-2H-3-chromenyl)carbonyl]glycine] had an IC50 of 150 nM.

`Cc1cccc(-c2ccc3c(O)c(C(=O)NCC(=O)O)c(=O)oc3c2)c1` [Example 14, N-[(4-hydroxy-2-oxo-7-(3-methylphenyl)-2H-3-chromenyl)carbonyl]glycine] showed an IC50 of 300 nM.

`Cc1ccc(-c2ccc3c(O)c(C(=O)NCC(=O)O)c(=O)oc3c2)cc1` [Example 15, N-[(4-hydroxy-2-oxo-7-(4-methylphenyl)-2H-3-chromenyl)carbonyl]glycine] gave an IC50 of 150 nM.

Regarding `O=C(O)CNC(=O)c1c(O)c2cccc(-c3ccccc3)c2oc1=O` [Example 16, N-[(4-hydroxy-2-oxo-8-phenyl-2H-3-chromenyl)carbonyl]glycine], the IC50 turned out to be 350 nM.

Regarding `O=C(O)CNC(=O)c1c(O)c2cccc(-c3ccccc3Cl)c2oc1=O` [Example 17, N-[(4-hydroxy-2-oxo-8-(2-chlorophenyl)-2H-3-chromenyl)carbonyl]glycine], the IC50 worked out at 200 nM.

Consider `O=C(O)CNC(=O)c1c(O)c2cccc(-c3cccc(Cl)c3)c2oc1=O` [Example 18, N-[(4-hydroxy-2-oxo-8-(3-chlorophenyl)-2H-3-chromenyl)carbonyl]glycine], for which the IC50 was 90 nM. Against the preceding compound, the IC50 is about 2.2-fold lower.

Regarding `O=C(O)CNC(=O)c1c(O)c2cccc(-c3ccc(Cl)cc3)c2oc1=O` [Example 19, N-[(4-hydroxy-2-oxo-8-(4-chlorophenyl)-2H-3-chromenyl)carbonyl]glycine], the IC50 worked out at 150 nM.

As to `O=C(O)CNC(=O)c1c(O)c2cccc(-c3cccc(C(F)(F)F)c3)c2oc1=O` [Example 20, N-[(4-hydroxy-2-oxo-8-(3-trifluoromethylphenyl)-2H-3-chromenyl)carbonyl]glycine], the IC50 was found to be 100 nM. This IC50 lies about 1.5-fold lower than the previous one.

As for `O=C(O)CNC(=O)c1c(O)c2cccc(-c3ccc(C(F)(F)F)cc3)c2oc1=O` [Example 21, N-[(4-hydroxy-2-oxo-8-(4-trifluoromethylphenyl)-2H-3-chromenyl)carbonyl]glycine], it took 90 nM to reach half-maximal inhibition (IC50).

The compound `O=C(O)CNC(=O)c1c(O)c2cccc(-c3cccc(OC(F)(F)F)c3)c2oc1=O` [Example 22, N-[(4-hydroxy-2-oxo-8-(3-trifluoromethoxyphenyl)-2H-3-chromenyl)carbonyl]glycine] displayed an IC50 of 100 nM.

`O=C(O)CNC(=O)c1c(O)c2cccc(-c3ccc(OC(F)(F)F)cc3)c2oc1=O` [Example 23, N-[(4-hydroxy-2-oxo-8-(4-trifluoromethoxyphenyl)-2H-3-chromenyl)carbonyl]glycine] came in with an IC50 of 150 nM.

Consider `O=C(O)CNC(=O)c1c(O)c2cccc(-c3ccc(Cl)c(Cl)c3)c2oc1=O` [Example 24, N-[(4-hydroxy-2-oxo-8-(3,4-dichlorophenyl)-2H-3-chromenyl)carbonyl]glycine], for which the IC50 came out at 30 nM.

Consider `O=C(O)CNC(=O)c1c(O)c2cccc(-c3ccc(F)c(F)c3)c2oc1=O` [Example 25, N-[(4-hydroxy-2-oxo-8-(3,4-difluorophenyl)-2H-3-chromenyl)carbonyl]glycine], for which the IC50 came to 150 nM.

`O=C(O)CNC(=O)c1c(O)c2cccc(-c3cc(F)c(F)c(F)c3)c2oc1=O` [Example 26, N-[(4-hydroxy-2-oxo-8-(3,4,5-trifluorophenyl)-2H-3-chromenyl)carbonyl]glycine] displayed an IC50 of 150 nM.

Compound `COc1cccc(-c2cccc3c(O)c(C(=O)NCC(=O)O)c(=O)oc23)c1` [Example 27, N-[(4-hydroxy-2-oxo-8-(3-methoxyphenyl)-2H-3-chromenyl)carbonyl]glycine] had an IC50 of 150 nM.

With `COc1ccc(-c2cccc3c(O)c(C(=O)NCC(=O)O)c(=O)oc23)cc1` [Example 28, N-[(4-hydroxy-2-oxo-8-(4-methoxyphenyl)-2H-3-chromenyl)carbonyl]glycine], the IC50 amounted to 80 nM.

`Cc1cccc(-c2cccc3c(O)c(C(=O)NCC(=O)O)c(=O)oc23)c1` [Example 29, N-[(4-hydroxy-2-oxo-8-(3-methylphenyl)-2H-3-chromenyl)carbonyl]glycine] showed an IC50 of 150 nM.

Compound `Cc1ccc(-c2cccc3c(O)c(C(=O)NCC(=O)O)c(=O)oc23)cc1` [Example 30, N-[(4-hydroxy-2-oxo-8-(4-methylphenyl)-2H-3-chromenyl)carbonyl]glycine] gave an IC50 of 80 nM.

As to `O=C(O)CNC(=O)c1c(O)c2ccc(-c3cccnc3)cc2oc1=O` [Example 33, N-[(4-hydroxy-2-oxo-7-(pyridin-3-yl)-2H-3-chromenyl)carbonyl]glycine], the IC50 was found to be 200 nM.

On to `O=C(O)CNC(=O)c1c(O)c2ccc(Oc3ccccc3)cc2oc1=O` [Example 34, N-[(4-hydroxy-2-oxo-7-phenoxy-2H-3-chromenyl)carbonyl]glycine], for which the IC50 turned out to be 150 nM.

Compound `O=C(O)CNC(=O)c1c(O)c2ccc(Br)cc2oc1=O` [Example 35, N-[(4-hydroxy-2-oxo-7-bromo-3-chromenyl)carbonyl]glycine] showed an IC50 of 150 nM.

As to `O=C(O)CNC(=O)c1c(O)c2cccc(Br)c2oc1=O` [Example 36, N-[(4-hydroxy-2-oxo-8-bromo-3-chromenyl)carbonyl]glycine], the half-inhibitory concentration (IC50) was 300 nM.

Take `O=C(O)CNC(=O)c1c(O)c2cc(Br)ccc2oc1=O` [Example 37, N-[(4-hydroxy-2-oxo-6-bromo-3-chromenyl)carbonyl]glycine]: the midpoint of inhibition, the IC50, lay at 700 nM.
